ChEMBL document CHEMBL1629559, “Real-time PCR detection of gyrA and parC mutations in Streptococcus pneumoniae” (2008)
In brackets after ≈: the same amount, converted by molar mass.

How the values were obtained:
[1] = system: Streptococcus pneumoniae; assay: Antibacterial activity against Streptococcus pneumoniae U2A1413 harboring parC Ser79Tyr mutant gene by agar dilution method; format: functional
[2] = system: Streptococcus pneumoniae; assay: Antibacterial activity against Streptococcus pneumoniae R6 Tr6 harboring gyrA Ser81Phe mutant gene by agar disk diffusion method; format: functional
[3] = system: Streptococcus pneumoniae; assay: Antibacterial activity against Streptococcus pneumoniae CIP104485 by agar disk diffusion method; format: functional, CIP1044
[4] = system: Streptococcus pneumoniae; assay: Antibacterial activity against Streptococcus pneumoniae U2A1051 harboring gyrA Ser81Tyr mutant gene by agar disk diffusion method; format: functional
[5] = system: Streptococcus pneumoniae; assay: Antibacterial activity against Streptococcus pneumoniae R6 Tr6 harboring gyrA Ser81Phe mutant gene by agar dilution method; format: functional
[6] = system: Streptococcus pneumoniae; assay: Antibacterial activity against Streptococcus pneumoniae R6 Tr10 harboring gyrA Ser81Tyr parC Ser79Tyr mutant gene by agar dilution method; format: functional
[7] = system: Streptococcus pneumoniae; assay: Antibacterial activity against Streptococcus pneumoniae U2A1053 harboring parC Ser79Phe mutant gene by agar dilution method; format: functional
[8] = system: Streptococcus pneumoniae; assay: Antibacterial activity against Streptococcus pneumoniae U2A1686 harboring gyrA Glu85Lys mutant gene by agar disk diffusion method; format: functional
[9] = system: Streptococcus pneumoniae; assay: Antibacterial activity against Streptococcus pneumoniae U2A1414 harboring gyrA Glu85Lys parC Ser79Phe mutant gene by agar dilution method; format: functional
[10] = system: Streptococcus pneumoniae; assay: Antibacterial activity against Streptococcus pneumoniae U2A1051 harboring gyrA Ser81Tyr mutant gene by agar dilution method; format: functional
[11] = system: Streptococcus pneumoniae; assay: Antibacterial activity against Streptococcus pneumoniae U2A1266 harboring gyrA Ser81Cys mutant gene by agar dilution method; format: functional
[12] = system: Streptococcus pneumoniae; assay: Antibacterial activity against Streptococcus pneumoniae U2A1411 harboring parC Asp83Gly mutant gene by agar disk diffusion method; format: functional
[13] = system: Streptococcus pneumoniae; assay: Antibacterial activity against Streptococcus pneumoniae U2A1050 harboring gyrA Ser81Phe mutant gene by agar dilution method; format: functional
[14] = system: Streptococcus pneumoniae; assay: Antibacterial activity against Streptococcus pneumoniae U2A1056 harboring gyrA Ser81Tyr parC Asp83His mutant gene by agar dilution method; format: functional
[15] = system: Streptococcus pneumoniae; assay: Antibacterial activity against Streptococcus pneumoniae U2A1053 harboring parC Ser79Phe mutant gene by agar disk diffusion method; format: functional
[16] = system: Streptococcus pneumoniae; assay: Antibacterial activity against Streptococcus pneumoniae U2A1686 harboring gyrA Glu85Lys mutant gene by agar dilution method; format: functional
[17] = system: Streptococcus pneumoniae; assay: Antibacterial activity against Streptococcus pneumoniae R6 Tr1 harboring parC Ser79Tyr mutant gene by agar dilution method; format: functional
[18] = system: Streptococcus pneumoniae; assay: Antibacterial activity against Streptococcus pneumoniae CP1000 by agar dilution method; format: functional
[19] = system: Streptococcus pneumoniae; assay: Antibacterial activity against Streptococcus pneumoniae U2A1266 harboring gyrA Ser81Cys mutant gene by agar disk diffusion method; format: functional
[20] = system: Streptococcus pneumoniae; assay: Antibacterial activity against Streptococcus pneumoniae R6 Tr1 harboring parC Ser79Tyr mutant gene by agar disk diffusion method; format: functional
[21] = system: Streptococcus pneumoniae; assay: Antibacterial activity against Streptococcus pneumoniae CIP104485 by agar dilution method; format: functional; settings: CIP1044
[22] = system: Streptococcus pneumoniae; assay: Antibacterial activity against Streptococcus pneumoniae U2A1411 harboring parC Asp83Gly mutant gene by agar dilution method; format: functional
[23] = system: Streptococcus pneumoniae; assay: Antibacterial activity against Streptococcus pneumoniae U2A1060 harboring gyrA Ser81Phe parC Asp83His mutant gene by agar disk diffusion method; format: functional
[24] = system: Streptococcus pneumoniae; assay: Antibacterial activity against Streptococcus pneumoniae U2A1050 harboring gyrA Ser81Phe mutant gene by agar disk diffusion method; format: functional
[25] = system: Streptococcus pneumoniae; assay: Antibacterial activity against Streptococcus pneumoniae U2A1413 harboring parC Ser79Tyr mutant gene by agar disk diffusion method; format: functional
[26] = system: Streptococcus pneumoniae; assay: Antibacterial activity against Streptococcus pneumoniae U2A1056 harboring gyrA Ser81Tyr parC Asp83His mutant gene by agar disk diffusion method; format: functional
[27] = system: Streptococcus pneumoniae; assay: Antibacterial activity against Streptococcus pneumoniae R6 by agar disk diffusion method; format: functional
[28] = system: Streptococcus pneumoniae; assay: Antibacterial activity against Streptococcus pneumoniae U2A1681 harboring parC Ser79Tyr Asp83Ala mutant gene by agar dilution method; format: functional
[29] = system: Streptococcus pneumoniae; assay: Antibacterial activity against Streptococcus pneumoniae U2A1414 harboring gyrA Glu85Lys parC Ser79Phe mutant gene by agar disk diffusion method; format: functional
[30] = system: Streptococcus pneumoniae; assay: Antibacterial activity against Streptococcus pneumoniae U2A1681 harboring parC Ser79Tyr Asp83Ala mutant gene by agar disk diffusion method; format: functional
[31] = system: Streptococcus pneumoniae; assay: Antibacterial activity against Streptococcus pneumoniae R6 Tr10 harboring gyrA Ser81Tyr parC Ser79Tyr mutant gene by agar disk diffusion method; format: functional
[32] = system: Streptococcus pneumoniae; assay: Antibacterial activity against Streptococcus pneumoniae CP1000 by agar disk diffusion method; format: functional
[33] = system: Streptococcus pneumoniae; assay: Antibacterial activity against Streptococcus pneumoniae R6 by agar dilution method; format: functional
[34] = system: Streptococcus pneumoniae; assay: Antibacterial activity against Streptococcus pneumoniae U2A1060 harboring gyrA Ser81Phe parC Asp83His mutant gene by agar dilution method; format: functional
[35] = system: Streptococcus pneumoniae; assay: Antibacterial activity against Streptococcus pneumoniae H548 clinical isolate harboring gyrA Ser81Phe mutant gene by agar disk diffusion method; format: functional
[36] = system: Streptococcus pneumoniae; assay: Antibacterial activity against Streptococcus pneumoniae U2A1693 harboring parC Asp83Asn mutant gene by agar disk diffusion method; format: functional
[37] = system: Streptococcus pneumoniae; assay: Antibacterial activity against Streptococcus pneumoniae U2A1693 harboring parC Asp83Asn mutant gene by agar dilution method; format: functional

SMILES | MIC [1] | diameter of the inhibition zone (DIZ) [2] | diameter of the inhibition zone (DIZ) [3] | diameter of the inhibition zone (DIZ) [4] | diameter of the inhibition zone (DIZ) [8] | MIC [9] | diameter of the inhibition zone (DIZ) [12] | diameter of the inhibition zone (DIZ) [15] | diameter of the inhibition zone (DIZ) [19] | diameter of the inhibition zone (DIZ) [20] | diameter of the inhibition zone (DIZ) [23] | diameter of the inhibition zone (DIZ) [24] | diameter of the inhibition zone (DIZ) [25] | diameter of the inhibition zone (DIZ) [26] | diameter of the inhibition zone (DIZ) [27] | diameter of the inhibition zone (DIZ) [29] | diameter of the inhibition zone (DIZ) [30] | diameter of the inhibition zone (DIZ) [31] | diameter of the inhibition zone (DIZ) [32] | diameter of the inhibition zone (DIZ) [36] | other results
O=C(O)c1cn(C2CC2)c2cc(N3CCNCC3)c(F)cc2c1=O [CIPROFLOXACIN] | 2 µg/mL (≈ 6.04 µM) | 21 mm | 25 mm | 22 mm | 25 mm | > 32 µg/mL | 10 mm | 19 mm | 23 mm | 19 mm | 6 mm | 23 mm | 24 mm | 6 mm | 21 mm | 6 mm | 6 mm | 6 mm | 23 mm | – | MIC [5]: 1 µg/mL (≈ 3.02 µM); MIC [6]: > 32 µg/mL; MIC [7]: 4 µg/mL (≈ 12.1 µM); MIC [10]: 2 µg/mL (≈ 6.04 µM); MIC [11]: 2 µg/mL (≈ 6.04 µM); MIC [13]: 2 µg/mL (≈ 6.04 µM); MIC [14]: 32 µg/mL (≈ 96.6 µM); MIC [16]: 1 µg/mL (≈ 3.02 µM); MIC [17]: 2 µg/mL (≈ 6.04 µM); MIC [18]: 1 µg/mL (≈ 3.02 µM); MIC [21]: 1 µg/mL (≈ 3.02 µM); MIC [22]: > 32 µg/mL; MIC [28]: > 32 µg/mL; MIC [33]: 1 µg/mL (≈ 3.02 µM); MIC [34]: > 32 µg/mL
C[C@H]1COc2c(N3CCN(C)CC3)c(F)cc3c(=O)c(C(=O)O)cn1c23.C[C@H]1COc2c(N3CCN(C)CC3)c(F)cc3c(=O)c(C(=O)O)cn1c23.O [LEVOFLOXACIN] | – | 23 mm | 22 mm | 22 mm | 26 mm | > 32 µg/mL | 15 mm | 22 mm | 21 mm | 21 mm | 6 mm | 19 mm | 22 mm | 12 mm | 21 mm | 6 mm | 6 mm | 6 mm | 24 mm | 19 mm | diameter of the inhibition zone (DIZ) [35]: 6 mm
COc1c(N2C[C@@H]3CCCN[C@@H]3C2)c(F)cc2c(=O)c(C(=O)O)cn(C3CC3)c12 [MOXIFLOXACIN] | 0.25 µg/mL (≈ 0.623 µM) | 24 mm | 26 mm | 25 mm | 27 mm | 8 µg/mL (≈ 19.9 µM) | 25 mm | 26 mm | 26 mm | 28 mm | 18 mm | 25 mm | 31 mm | – | 26 mm | 17 mm | 12 mm | 18 mm | 28 mm | 27 mm | MIC [5]: 0.5 µg/mL (≈ 1.25 µM); MIC [7]: 0.25 µg/mL (≈ 0.623 µM); MIC [37]: 0.5 µg/mL (≈ 1.25 µM); MIC [10]: 1 µg/mL (≈ 2.49 µM); MIC [11]: 0.5 µg/mL (≈ 1.25 µM); MIC [13]: 1 µg/mL (≈ 2.49 µM); MIC [14]: 2 µg/mL (≈ 4.98 µM); MIC [16]: 0.5 µg/mL (≈ 1.25 µM); MIC [17]: 0.5 µg/mL (≈ 1.25 µM); MIC [18]: 0.25 µg/mL (≈ 0.623 µM); MIC [21]: 0.125 µg/mL (≈ 0.311 µM); MIC [22]: 0.5 µg/mL (≈ 1.25 µM); MIC [28]: 8 µg/mL (≈ 19.9 µM); MIC [33]: 0.125 µg/mL (≈ 0.311 µM)
CCn1cc(C(=O)O)c(=O)c2ccc(C)nc21 [NALIDIXIC ACID] | – | 6 mm | 6 mm | 8 mm | 6 mm | – | 6 mm | 13 mm | 6 mm | 6 mm | 14 mm | 6 mm | 6 mm | 6 mm | 6 mm | 6 mm | 6 mm | 6 mm | 6 mm | 6 mm | diameter of the inhibition zone (DIZ) [35]: 6 mm
C[C@@H]1CN(c2c(F)c(N)c3c(=O)c(C(=O)O)cn(C4CC4)c3c2F)C[C@H](C)N1 [SPARFLOXACIN] | 0.25 µg/mL (≈ 0.637 µM) | 23 mm | 24 mm | 22 mm | 24 mm | > 32 µg/mL | 19 mm | 25 mm | 23 mm | 25 mm | 11 mm | 22 mm | 28 mm | 11 mm | 23 mm | 6 mm | 6 mm | 12 mm | 26 mm | 24 mm | diameter of the inhibition zone (DIZ) [35]: 20 mm; MIC [5]: 1 µg/mL (≈ 2.55 µM); MIC [6]: 16 µg/mL (≈ 40.8 µM); MIC [7]: 0.25 µg/mL (≈ 0.637 µM); MIC [10]: 2 µg/mL (≈ 5.1 µM); MIC [11]: 1 µg/mL (≈ 2.55 µM); MIC [13]: 2 µg/mL (≈ 5.1 µM); MIC [14]: 8 µg/mL (≈ 20.4 µM); MIC [16]: 2 µg/mL (≈ 5.1 µM); MIC [17]: 1 µg/mL (≈ 2.55 µM); MIC [18]: 0.25 µg/mL (≈ 0.637 µM); MIC [21]: 0.25 µg/mL (≈ 0.637 µM); MIC [28]: 32 µg/mL (≈ 81.5 µM); MIC [33]: 0.25 µg/mL (≈ 0.637 µM); MIC [34]: 16 µg/mL (≈ 40.8 µM)
